Source: US20070071717A1, “Treatment of B cells with IL-21 and B cell activators induces Granzyme B production” (University of Iowa Research Foundation, priority 2005, published 2007)

Assays:
B-CLL cells [1] = test: Flow cytometric apoptosis / cell survival assay (Annexin V, PI) of B-CLL cells; format: cell-based, human
Protocol: Apoptosis and cell survival assay. Cells were harvested at the indicated time points by staining all cells from a given well with mAb for CD19, CD5 and FITC-labeled Annexin V (BD Biosciences, San Diego, Calif.). A predetermined number of calibration beads (CaliBRITE™ Beads, BD Biosciences, San Diego, Calif.) were then added to each sample to allow for normalization of cell counts in different samples at different time points.
(§1) Flow cytometric apoptosis assays. Cells were stained with Annexin V (BD Biosciences, San Diego, Calif.), or cell-permeable fluorogenic substrates specific for Granzyme B or Caspase 6 for 1 hour at room temperature according to the manufacturer's instructions (Oncolmmunin, Gaithersburg. Md.). A pre-determined number of calibration beads (CaliBRITE™ Beads, BD Biosciences, San Diego, Calif.) was added to each sample to allow for normalization of cell counts at different time points. Propidium iodide at 1 μg/ml was added just prior to flow cytometric analysis. The count of viable cells rather than the count of apoptotic cells was used for the calculation of cell survival because of concerns some non-viable cells may have undergone lysis and not have been available for counting. Absolute cell survival was expressed as percentage of viable cell counts relative to initial plating counts.

B-CLL cells [2] = test: Intracellular flow cytometry for Granzyme B, Granzyme A and Perforin in B-CLL cells; format: cell-based, human; conditions: 18 hours, Brefeldin A for the last hours
Protocol: Flow cytometry. […] For flow cytometric Granzyme and Perforin detection, cells were incubated at 1×10^6/ml for 13 hrs, Brefeldin A (Epicentre Technologies, Madison, Wis.) added to a final concentration of 1 mg/ml, and cells cultured for 5 more hours. Intracellular staining was performed using a Fix and Perm kit (Caltag Laboratories, Burlingame, Calif.) according to the manufacturer's instructions. Briefly, cells were washed once and resuspended in Fixation Buffer, incubated for 15 minutes at room temperature and washed with PBS. Cells were then resuspended in Permeabilization Buffer and PE- or FITC-labeled antibodies to Granzyme B (clone GB12; Caltag Laboratories), Perforin (clone dG9; BD Pharmingen), Granzyme A (clone CB9; BD Pharmingen) or suitable control antibodies were added. After another 15 minute incubation at room temperature, cells were washed with PBS. Flow cytometric analyses were performed on a FACScan (Becton Dickinson Immunocytometry Systems, San Jose, Calif.) and data analyzed using the program FlowJo (version 6.4.1, Tree Star Inc., Stanford, Calif.).

[3] = system: untreated, bystander B-CLL cells; test: Bystander cell killing assay with autologous B-CLL cells; format: cell-based, human; conditions: 24 hours treatment, washed, 2 days co-culture
Protocol: Bystander cell assay. Cells were harvested from CLL subjects and separated into aliquots. One aliquot was treated with CpG ODN, IL-21 or both, while a second was untreated but labeled with a membrane dye. Both aliquots were washed thoroughly, and mixed together in the indicated ratio. Cells were harvested after two days, and the number of viable cells in each aliquot determined by gating on the stained or unstained cells.
(§2) Flow cytometry. Antibodies to CD5, CD19, CD27 as well as CD107a were purchased from BD Bioscoences (San Diego, Calif.). IL-21 receptor protein expression was detected using a mAB (clone 152512) from R&D Systems (Minneapolis, Minn.). PKH26 staining was used to identify untreated cells in bystander assays. B-CLL cells were resuspended at a density of 1×10^7 cells/ml in diluent C containing 2 μM PKH26 (both from Sigma, Saint Louis, Mo.). […] Flow cytometric analyses were performed on a FACScan (Becton Dickinson Immunocytometry Systems, San Jose, Calif.) and data analyzed using the program FlowJo (version 6.4.1, Tree Star Inc., Stanford, Calif.).
B-CLL cells treated with CpG ODN and IL-21 can kill untreated autologous cells. […] The inventors next evaluated whether B-CLL cells treated with IL-21 and CpG ODN have the potential to kill. […] The survival of the unstained, untreated cells was then evaluated by flow cytometry.

[4] = system: benign peripheral blood B cells; test: Granzyme B flow cytometry and ELISpot with purified benign peripheral B cells; format: cell-based, human
Protocol: as §2, with “Mo.). After 3 minutes, the reaction was stopped by adding an equal volume of FBS (HyClone, Ogden, Utah). Subsequently cells were washed 3 times and finally resuspended in AIM-V medium. For flow cytometric Granzyme and Perforin detection, cells were incubated at 1×10^6/ml for 13 hrs, Brefeldin A (Epicentre Technologies, Madison, Wis.) added to a final concentration of […], and cells cultured for 5 more hours.” for “Mo.).”
Elispot assays for human Granzyme B and Perforin. […] Plates were dried completely, and spots read on an Immunospot Series 1 Analyzer and counted using Immunospot 3 software, both from C.T.L. Cellular Technology Ltd. (Cleveland, Ohio).

benign B cells = test: Apoptosis / cell survival assay of benign B cells; format: cell-based, human; conditions: 3 days of culture
Protocol: as §1, with “Apoptosis and cell survival assay. Cells were harvested at the indicated time points by staining all cells from a given well with mAb for CD19, CD5 and FITC-labeled Annexin V (BD Biosciences, San Diego, Calif.). A predetermined number of calibration beads (CaliBRITE™ Beads, BD Biosciences, San Diego, Calif.) were then added to each sample to allow for normalization of cell counts in different samples at different time points. Flow” for “Flow”

Purified B cells = test: RT-PCR for granzyme B and perforin in purified B cells; format: cell-based, human; conditions: 18 hours, with or without anti-BCR antibodies
Protocol: Purified B cells (purity >99.9%) were cultured for 18 hours in the presence or absence of IL-21 and B cell receptor stimulation (anti-BCR antibodies). Subsequently RNA was isolated and real time RT-PCR with specific primers and probes for granzyme B and perforin was performed. In addition to real time RT-PCR, conventional RT-PCR was also performed and PCR products were run on a gel. The expected amplicon sized are 218 bp (base pairs) and 146 bp for granzyme B and perforin respectively.

[5] = system: Daudi cells (pre-B cell line); test: IFN-γ ELISpot with Daudi cells; format: cell-based; conditions: 10^5 cells/well, 16 hours
Protocol: Daudi cells (pre-B cell line) were incubated on IFN-γ-ELISpot plates in the presence of IL-21, CpG ODN, B cell receptor stimulation or various combinations at a cell concentration of 10^5 cells/well. After 16 hours plates were developed and analyzed.

IL-21 receptor = test: Flow cytometry of IL-21 receptor protein on B-CLL cells; format: cell-based, human; conditions: after 4 and 7 days of incubation, ODN 2.5 μg/ml, FACS
Protocol: Flow cytometry. Antibodies to CD5, CD19, CD27 as well as CD107a were purchased from BD Bioscoences (San Diego, Calif.). IL-21 receptor protein expression was detected using a mAB (clone 152512) from R&D Systems (Minneapolis, Minn.). PKH26 staining was used to identify untreated cells in bystander assays. B-CLL cells were resuspended at a density of 1×10^7 cells/ml in diluent C containing 2 μM PKH26 (both from Sigma, Saint Louis, Mo.). After 3 minutes, the reaction was stopped by adding an equal volume of FBS (HyClone, Ogden, Utah). Subsequently cells were washed 3 times and finally resuspended in AIM-V medium. For flow cytometric Granzyme and Perforin detection, cells were incubated at 1×10^6/ml for 13 hrs, Brefeldin A (Epicentre Technologies, Madison, Wis.) added to a final concentration of […], and cells cultured for 5 more hours. Intracellular staining was performed using a Fix and Perm kit (Caltag Laboratories, Burlingame, Calif.) according to the manufacturer's instructions. Briefly, cells were washed once and resuspended in Fixation Buffer, incubated for 15 minutes at room temperature and washed with PBS. […] Flow cytometric analyses were performed on a FACScan (Becton Dickinson Immunocytometry Systems, San Jose, Calif.) and data analyzed using the program FlowJo (version 6.4.1, Tree Star Inc., Stanford, Calif.).

IL-21: cytokine of 131 residues (SEQ ID NO:1); Human IL-21 purchased from BioSource
apoptosis of B-CLL cells (B-CLL cells [1]; 4 days, Annexin V and PI): induced some apoptosis | ED50 to induce apoptosis of B-CLL cells (B-CLL cells [1]; agent alone, 4 days): 0.04 µg/mL | apoptosis of CD5-negative, atypical B-CLL (B-CLL cells [1]; preliminary, unpublished results): do not undergo apoptosis | Granzyme B(+) B-CLL cells, flow cytometry gating on CD19(+) (B-CLL cells [2]): rare Granzyme B(+) B cells | killing of untreated autologous bystander B-CLL cells by treated B-CLL cells [3]: No such bystander effect | Granzyme B expression by highly purified (99.9%) benign B cells [4]: induced expression of Granzyme B | apoptosis of benign B cells (benign B cells): Neither IL-21 alone nor IL-21 plus CpG ODN induced apoptosis | transcription of the gene for granzyme B in B cells (Purified B cells): induces transcription | transcription of the gene for perforin in B cells (Purified B cells): induces transcription | secretion of interferon-γ by Daudi cells [5]: induces the secretion

control ODN: phosphorothioate-phosphodiester-modified control oligodeoxynucleotide 2243, 5′-GGGGGAGCATGCTGGGGGGG-3′ (SEQ ID NO:5) (DNA GGGGGAGCATGCTGGGGGGG; DNA, backbone and methylation of C not given here; phosphorothioate-phosphodiester chimeric backbone)
IL-21 receptor protein levels on B-CLL cells (IL-21 receptor): no detectable effect
